Experimental data from ChEMBL document CHEMBL1129221, “Inhibition of nitric oxide synthase by benzoxazolones” (Bioorg Med Chem Lett, 1997).

Tests used:
Nitric oxide synthase 3 = target: T1, Nitric oxide synthase 3 (Homo sapiens, UniProt P29474); test: Inhibitory activity against Endothelial nitric oxide synthase
T1 sequence (P29474 whole entry): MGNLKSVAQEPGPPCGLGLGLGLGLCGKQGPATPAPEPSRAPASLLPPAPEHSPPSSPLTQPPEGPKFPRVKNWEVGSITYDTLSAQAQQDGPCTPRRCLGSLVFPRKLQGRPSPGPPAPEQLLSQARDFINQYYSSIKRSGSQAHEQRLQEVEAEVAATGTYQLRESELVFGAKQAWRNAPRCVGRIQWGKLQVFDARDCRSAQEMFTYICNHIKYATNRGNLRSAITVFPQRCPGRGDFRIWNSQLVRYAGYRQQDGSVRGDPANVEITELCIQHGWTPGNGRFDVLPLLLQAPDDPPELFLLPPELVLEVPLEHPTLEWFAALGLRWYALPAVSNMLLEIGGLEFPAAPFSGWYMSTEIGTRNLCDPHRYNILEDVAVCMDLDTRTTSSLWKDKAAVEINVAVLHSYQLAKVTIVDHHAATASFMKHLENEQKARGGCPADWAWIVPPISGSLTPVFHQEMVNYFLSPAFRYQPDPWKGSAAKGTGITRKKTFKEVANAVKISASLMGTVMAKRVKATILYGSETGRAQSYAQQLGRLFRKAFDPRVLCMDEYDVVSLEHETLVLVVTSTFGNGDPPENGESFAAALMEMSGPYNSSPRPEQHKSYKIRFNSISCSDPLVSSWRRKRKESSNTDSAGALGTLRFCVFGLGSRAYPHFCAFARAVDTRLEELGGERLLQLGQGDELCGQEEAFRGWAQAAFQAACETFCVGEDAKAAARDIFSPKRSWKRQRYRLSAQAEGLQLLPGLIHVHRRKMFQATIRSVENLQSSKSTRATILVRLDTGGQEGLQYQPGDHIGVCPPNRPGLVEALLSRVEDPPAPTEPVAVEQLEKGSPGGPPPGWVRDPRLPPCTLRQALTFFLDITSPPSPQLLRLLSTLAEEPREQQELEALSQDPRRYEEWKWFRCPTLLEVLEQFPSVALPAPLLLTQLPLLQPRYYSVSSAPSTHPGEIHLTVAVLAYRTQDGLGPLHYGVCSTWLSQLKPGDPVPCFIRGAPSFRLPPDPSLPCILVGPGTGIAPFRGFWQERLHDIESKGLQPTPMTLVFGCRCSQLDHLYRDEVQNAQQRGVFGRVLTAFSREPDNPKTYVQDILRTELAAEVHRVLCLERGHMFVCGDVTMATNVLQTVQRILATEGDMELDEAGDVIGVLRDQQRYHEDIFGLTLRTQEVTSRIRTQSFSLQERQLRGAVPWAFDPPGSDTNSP

[1] = target: T2, Nitric oxide synthase, inducible (Homo sapiens, UniProt P35228); test: Inhibitory activity against Inducible nitric oxide synthase
Nitric oxide synthase 1 [2] = target: T3, Nitric oxide synthase 1 (Homo sapiens, UniProt P29475); test: Inhibitory activity against Neuronal nitric oxide synthase
[3] = target: T2, Nitric oxide synthase, inducible; test: In vitro inhibitory activity against Inducible nitric oxide synthase at 50 uM concentration
Nitric oxide synthase 1 [4] = target: T3, Nitric oxide synthase 1; test: Compound was evaluated for in vitro inhibitory activity against Neuronal nitric oxide synthase; settings: concentration not given here

T3 sequence (P29475 whole entry): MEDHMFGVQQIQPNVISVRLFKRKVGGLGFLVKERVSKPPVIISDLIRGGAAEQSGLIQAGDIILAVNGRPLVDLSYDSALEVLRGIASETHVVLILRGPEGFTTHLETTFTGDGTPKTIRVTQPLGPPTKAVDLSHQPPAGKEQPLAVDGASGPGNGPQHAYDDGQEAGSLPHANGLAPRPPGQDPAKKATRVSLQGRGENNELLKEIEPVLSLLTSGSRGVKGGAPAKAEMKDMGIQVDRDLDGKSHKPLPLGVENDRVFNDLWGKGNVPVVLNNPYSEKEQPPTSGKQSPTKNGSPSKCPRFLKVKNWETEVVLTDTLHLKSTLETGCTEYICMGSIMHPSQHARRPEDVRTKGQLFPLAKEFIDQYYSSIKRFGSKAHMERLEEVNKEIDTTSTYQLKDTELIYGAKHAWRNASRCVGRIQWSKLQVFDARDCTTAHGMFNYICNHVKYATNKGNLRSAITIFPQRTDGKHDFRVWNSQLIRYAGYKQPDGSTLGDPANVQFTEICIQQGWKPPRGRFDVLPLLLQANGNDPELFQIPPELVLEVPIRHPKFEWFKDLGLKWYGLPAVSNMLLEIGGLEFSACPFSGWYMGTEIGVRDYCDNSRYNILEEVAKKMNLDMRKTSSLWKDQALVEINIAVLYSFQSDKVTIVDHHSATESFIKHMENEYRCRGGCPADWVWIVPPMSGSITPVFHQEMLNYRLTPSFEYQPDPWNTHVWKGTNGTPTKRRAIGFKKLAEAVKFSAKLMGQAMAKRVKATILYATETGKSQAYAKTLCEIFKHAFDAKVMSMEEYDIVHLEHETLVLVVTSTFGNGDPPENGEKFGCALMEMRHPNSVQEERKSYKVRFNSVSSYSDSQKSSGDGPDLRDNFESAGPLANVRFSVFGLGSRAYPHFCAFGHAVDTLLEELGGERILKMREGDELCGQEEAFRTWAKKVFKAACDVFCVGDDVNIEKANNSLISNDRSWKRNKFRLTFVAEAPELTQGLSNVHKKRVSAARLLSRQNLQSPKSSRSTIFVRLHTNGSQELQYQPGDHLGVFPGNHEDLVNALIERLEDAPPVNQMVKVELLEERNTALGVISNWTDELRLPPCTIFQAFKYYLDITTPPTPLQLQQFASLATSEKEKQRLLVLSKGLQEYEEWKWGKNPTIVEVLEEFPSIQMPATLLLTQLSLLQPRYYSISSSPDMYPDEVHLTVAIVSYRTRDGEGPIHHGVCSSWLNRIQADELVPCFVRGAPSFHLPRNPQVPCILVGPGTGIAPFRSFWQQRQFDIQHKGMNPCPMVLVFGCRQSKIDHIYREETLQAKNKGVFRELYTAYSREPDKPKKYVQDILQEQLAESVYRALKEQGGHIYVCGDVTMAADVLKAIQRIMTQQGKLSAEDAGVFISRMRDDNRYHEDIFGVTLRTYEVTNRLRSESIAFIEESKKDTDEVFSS
T2 sequence (P35228 whole entry): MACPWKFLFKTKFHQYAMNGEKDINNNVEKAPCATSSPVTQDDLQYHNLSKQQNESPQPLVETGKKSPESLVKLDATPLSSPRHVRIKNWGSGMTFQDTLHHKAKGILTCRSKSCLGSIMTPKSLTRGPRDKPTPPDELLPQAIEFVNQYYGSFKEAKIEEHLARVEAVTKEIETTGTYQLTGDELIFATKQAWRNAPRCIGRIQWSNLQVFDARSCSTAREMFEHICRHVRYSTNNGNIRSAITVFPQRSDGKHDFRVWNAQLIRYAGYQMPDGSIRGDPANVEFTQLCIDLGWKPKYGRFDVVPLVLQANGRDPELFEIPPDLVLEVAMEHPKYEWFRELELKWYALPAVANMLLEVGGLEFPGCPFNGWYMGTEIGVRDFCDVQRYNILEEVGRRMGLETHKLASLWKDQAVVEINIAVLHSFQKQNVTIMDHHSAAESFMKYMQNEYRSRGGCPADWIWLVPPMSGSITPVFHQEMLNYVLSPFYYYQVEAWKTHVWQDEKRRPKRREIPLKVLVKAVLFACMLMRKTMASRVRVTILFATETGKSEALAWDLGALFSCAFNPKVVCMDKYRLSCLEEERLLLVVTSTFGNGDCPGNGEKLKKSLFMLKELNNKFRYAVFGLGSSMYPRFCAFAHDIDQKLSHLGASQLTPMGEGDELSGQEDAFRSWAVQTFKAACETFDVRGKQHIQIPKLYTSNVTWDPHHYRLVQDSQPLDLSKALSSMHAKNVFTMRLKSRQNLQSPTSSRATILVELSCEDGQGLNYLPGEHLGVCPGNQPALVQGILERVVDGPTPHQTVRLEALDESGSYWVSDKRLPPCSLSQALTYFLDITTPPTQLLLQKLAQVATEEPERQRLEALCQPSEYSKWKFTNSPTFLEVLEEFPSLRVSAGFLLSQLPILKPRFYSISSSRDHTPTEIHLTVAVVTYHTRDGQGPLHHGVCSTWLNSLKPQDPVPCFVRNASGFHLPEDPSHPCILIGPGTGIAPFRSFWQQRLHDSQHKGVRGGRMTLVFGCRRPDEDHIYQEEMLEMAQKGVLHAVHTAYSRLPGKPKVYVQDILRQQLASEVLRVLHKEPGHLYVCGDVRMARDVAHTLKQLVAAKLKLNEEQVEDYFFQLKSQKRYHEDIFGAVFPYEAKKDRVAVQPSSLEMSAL

| Structure (SMILES) | IC50 (Nitric oxide synthase 3) [µM] | IC50 [1] [µM] | IC50 (Nitric oxide synthase 1 [2]) [µM] | inhibition [3] [%] | inhibition (Nitric oxide synthase 1 [4]) [%] |
| --- | --- | --- | --- | --- | --- |
| O=c1oc2ccc(Cl)cc2n1CN1CCOCC1 | 14.7 | 0.8 | 5.6 |  |  |
| O=c1oc2ccc(Cl)cc2n1CN1CCSCC1 | 20.3 | 3.5 | 4.4 |  |  |
| CN(CCc1ccccc1)Cn1c(=O)oc2ccc(Cl)cc21 | 15.9 | 15.9 | 68 |  |  |
| O=c1[nH]c2cc(F)ccc2o1 | > 50 | > 50 | > 50 |  |  |
| Cc1cccc2oc(=O)[nH]c12 | > 50 | > 50 | > 50 |  |  |
| CN1CCN(Cn2c(=O)oc3ccc(Cl)cc32)CC1 | 15.5 | 1.2 | 4.4 |  |  |
| CN(Cn1c(=O)oc2ccc(Cl)cc21)c1ccccn1 | 8.4 |  |  | 74 | 71 |

More lines, now with the values ahead:

| IC50 (Nitric oxide synthase 3) [µM] | IC50 [1] [µM] | IC50 (Nitric oxide synthase 1 [2]) [µM] | inhibition [3] [%] | inhibition (Nitric oxide synthase 1 [4]) [%] | Structure (SMILES) |
| --- | --- | --- | --- | --- | --- |
|  |  |  | 0 |  | O=c1oc2ccc(Cl)cc2n1CCN1CCOCC1 |
| > 50 | > 50 | > 50 |  |  | Sc1nc2cc(Cl)ccc2o1 |
| 50 | 14.5 | 50 |  |  | N#Cc1ccc2oc(O)nc2c1 |
| 13.6 | 13.4 | 11.5 |  |  | CN(Cc1ccccc1)Cn1c(=O)oc2ccc(Cl)cc21 |
| 18.9 | 1.5 | 4.6 |  |  | O=c1oc2ccc(Cl)cc2n1CN1CCCCC1 |
| > 50 | > 50 | 13.1 |  |  | Cc1ccc2[nH]c(=O)oc2c1 |
| 10.6 | 9.9 | 50 |  |  | Cc1ccc2oc(O)nc2c1 |
|  | > 50 |  |  |  | Oc1nc2ncccc2o1 |
| > 50 | 7.4 | 50 |  |  | Cc1ccc2nc(O)oc2n1 |
